Here are results for two compounds from patent US20240166690A1, “MULTI-TARGET CY[…] FOR OPIOID/NEUROPEPTIDE FF RECEPTORS, AND PREPARATION THEREFOR AND APPLICATION THEREOF” (SHANGHAI TIANCI LIFE SCIENCE DEVELOPMENT CO., LTD., priority 2021, published 2024).

Data set [1] addresses T1, Delta-opioid receptor (Homo sapiens, UniProt P41143).
T1 construct: expressed in transfected cells; host or cells: HEK293
Kind of data set: cAMP functional experiment, Delta-opioid receptor (forskolin-induced cAMP accumulation). The class given is cell-based. How it is done: The agonistic activity of the cyclopeptide molecule of the present invention against Mu-opioid receptor, Delta-opioid receptor, Kappa-opioid receptor, NPFF1 receptor and NPFF2 receptor was evaluated by detecting the regulation of the cyclopeptide molecule of the present invention on the intracellular accumulation of cyclic adenosine monophosphate (cAMP) induced by Forskolin in HEK293 cells stably expressing these five receptors. The experimental method was: the cells were seeded in 24 well plates with 120000 cells per well, and were cultured for more than 20 hours. At the beginning of the experiment, the culture medium in the culture dish was suck out, and then 500 μL of preheated serum-free medium containing 1 mM of IBMX was added, the mixture was incubated at 37° C. for 10 minutes. Then each 10 μL of the drug to be tested and 10 μM of forskolin (final concentration) were added to each well. The mixture was incubated at 37° C. for 30 minutes. After incubation, all the liquid was suck out from the culture dish, 500 μL of 0.2 N hydrochloric acid was added to each well, the mixture was incubated at room temperature for 30 minutes to promote cell lysis. After lysis was complete, NaOH was added to neutralize the hydrochloric acid solution used for lysis. Then all the liquid was suck out from the culture dish into centrifuge tubes, the liquid was centrifuged at 12000 rpm for 2 minutes. 50 μL was taken to a clean centrifuge tube, 100 μL of 60 μg/μL PKA was added, and 100 μL of TE cAMP buffer was added to the blank control group (B). Another 50 μL of 0.5 μ Ci[^3H]cAMP was added to each of the above centrifuge tubes, the mixture was quickly mixed and incubated at 4° C. for more than 2 hours. After incubation, another 100 μL of activated carbon suspension was added to each tube, the mixture was vortex agitated evenly, placed in an ice bath for 1 minute, centrifuged at 5000 rpm for 4 minutes. 200 μL of supernatant after centrifugation in each tube was suck out to a 24 well plate, with an additional 700 μL of scintillator liquid added per well, then the 24 well plate was sealed with adhesive film, placed for 3 hours, then placed on the scintillation instrument for measurement.
The inhibitory effect of cAMP was represented by the percentage (% control) of drug inhibition of intracellular cAMP accumulation induced by Forskolin, wherein % control=(cAMP content when treated with Forskolin−cAMP content when Forskolin co-treated with the test drug)/(cAMP content when treated with Forskolin−cAMP content when treated with solvent). The related % control data was represented by mean±S.E.M. The dose-effect relationship of the drug was statistically analyzed using a nonlinear regression model, and the IC50 values of the multi-target cyclopeptide molecule on inhibition of Forskolin induced intracellular cAMP accumulation were calculated using the statistical software GraphPad Prism version 5.0.

Data set [2] deals with male mice. Kind of data set: Conditioned place preference experiment (CPP). The class given is in vivo. The following applies: 10000 μg/kg orally. How it is done: Conditioned place preference experiment (CPP) was conducted in a device consisting of three organic glass boxes, wherein two large boxes (20×20×20 cm) on either side separated by a small box (5×20×20 cm) in the middle. A small door of 5×5 was at the bottom of two large boxes for mice to enter and exit, and the doors can be closed. A box on one side was white, with a rough wire mesh as the bottom and a light intensity of 50 lux. A box on other side was black, with a smooth bottom and a light intensity of 20 lux. 25±5 g male mice were selected for the experiment, the room temperature was 22±1° C. On the first day of the experiment, the mice were first screened, allowing them to shuttle freely between two boxes for 15 minutes. The time the mice stayed in one box was recorded, and mice that stayed for more than 9 minutes were removed. Mice without preference/aversion were selected. […] On the 5th day, CPP performance was measured. As on the first day, the time stay in each box was measured for the mice after administration with the duration of 15 minutes. The inter group differences between different drug treatments in the CPP experiment and the differences in the number of jumps in the naloxone withdrawal experiment was statistically analyzed using paired t-tests. *P<0.05, **P<0.01, and ***P<0.001 indicated significance of differences between the drug treatment group and the saline group.

Data set [3] has as its system Kunming male mice. Kind of data set: Photothermal tail flick experiment, subcutaneous injection. The following applies: photothermal tail flick. Format: in vivo. How it is done: Two administration methods were used: peripheral subcutaneous administration and oral administration. Subsequently, the analgesic activity of the drug was studied using an acute pain model of photothermal tail flick in mice.
Subcutaneous administration on the back was chosen for subcutaneous administration (s.c.). A sterile 1 mL syringe was used and the drug with the volume of 0.1 mL/10 g was injected for administration. The back skin was grasped with the right hand, the needle was tilted in, and the drug was injected subcutaneously into the mouse's back. After the needle was inserted, shook it left and right, and observe to confirm that the needle had indeed entered the subcutaneous area to prevent the needle from puncturing the skin and leaking the drug.
The photothermal tail flick experiment is based on the experimental method summarized by D'Amour and Smith to optimize the experimental parameters. The experiment selected Kunming male mice with body weigh 21±2 g, and ambient temperature controlled at 22±2° C. The experimental mice were allowed to drink water freely and were moved from the breeding room to the experimental area for adaptation for 30 minutes before starting the experiment. Then the mice were grab with the right hand and the tail hang freely. Then the mice's tail were placed on a radiation light source, 2-3 mm away from the mice tail. The intensity of radiation heat was adjusted to the tail flick time of mice being 3-5 s, which is the basic pain threshold of photothermal tail flick. The irradiation time of the mice tail should not exceed 10 s to prevent scalding of the mice tail, which was the maximum latency for photothermal tail flick. After administration, time points of 10, 20, 30, 45, 60, 90, 120, 180, 240, 300, 360, and 420 minutes were selected to measure the tail flick latency of mice after administration.
The analgesic effect of drugs was generally evaluated using the maximum analgesic effect MPE (%), MPE (%)=100×[(pain threshold after administration−basic pain threshold)/(10 seconds−basic pain threshold)]. 50% effective dose (ED50) refers to the corresponding drug dose that causes a 50% effect. ED50 and 95% confidence interval were calculated using MPE (%) and the drug concentration that achieves the maximum analgesic effect MPE (%) by the statistical software GraphPad Prism 5.0. The difference in analgesic effects was statistically analyzed using one-way ANOVA (Dunnett test), *P<0.05, **P<0.01, and ***P<0.001 indicated significance of the difference between the group with only drug injected and the saline group.

Each structure is given as a SMILES string. Bridge positions count the residues as written; N and C are the ends. Square brackets hold non-standard residues; d marks the D form. Peptide text beside a SMILES is read from it. NMeF = CN[C@@H](Cc1ccccc1)C(=O)O; dOrn = NCCC[C@@H](N)C(=O)O

T1 sequence (P41143 whole entry): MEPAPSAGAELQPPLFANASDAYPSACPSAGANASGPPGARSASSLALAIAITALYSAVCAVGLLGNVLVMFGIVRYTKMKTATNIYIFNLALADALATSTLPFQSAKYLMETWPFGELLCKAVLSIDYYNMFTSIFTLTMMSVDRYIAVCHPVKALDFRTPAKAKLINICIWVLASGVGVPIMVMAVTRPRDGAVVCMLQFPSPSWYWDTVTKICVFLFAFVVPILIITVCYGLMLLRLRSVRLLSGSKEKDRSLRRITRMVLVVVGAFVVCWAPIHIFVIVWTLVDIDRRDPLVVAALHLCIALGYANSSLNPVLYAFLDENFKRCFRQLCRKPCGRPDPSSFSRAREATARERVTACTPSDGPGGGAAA

Compound `CN1C(=O)CNC(=O)[C@H](NC(=O)[C@@H](N)Cc2ccc(O)cc2)CCCNC(=O)CC[C@@H](C(=O)N2CCC[C@H]2C(=O)N[C@@H](CCC(N)=O)C(=O)N[C@@H](CCCNC(=N)N)C(=O)N[C@@H](Cc2ccccc2)C(N)=O)NC(=O)[C@@H]1Cc1ccccc1` [Compound 11, Tyr-c^[2,5][D-Orn-Gly-NMe-Phe-Glu]-Pro-Gln-Arg-Phe-NH2] (H-Y[dOrn]G[NMeF]EPQRF-NH2; lactam 2-5) came in with an IC50 in data set [1] of 1560 nM. Moreover, the “conditioned place preference” value in data set [2] is reported as “no phenomenon of conditioned place preference”.

For `CN1C(=O)CNC(=O)[C@H](NC(=O)[C@@H](N)Cc2ccc(O)cc2)CCCCNC(=O)C[C@@H](C(=O)N2CCC[C@H]2C(=O)N[C@@H](CCC(N)=O)C(=O)N[C@@H](CCCNC(=N)N)C(=O)N[C@@H](Cc2ccccc2)C(N)=O)NC(=O)[C@@H]1Cc1ccccc1` [Compound 1, Tyr-c[D-Lys-Gly-NMe-Phe-Asp]-Pro-Gln-Arg-Phe-NH2] (H-Y[dK]G[NMeF]DPQRF-NH2; lactam 2-5), in data set [1], the midpoint of inhibition, the IC50, lay at 549 nM. Also, the “ED50 value (95% confidence interval), analgesic activity” value in data set [3] is on record as 0.32 (0.27 to 0.38) μg/kg. Moreover, the “conditioned place preference” value in data set [2] was “no phenomenon of conditioned place preference”.
